The values that follow come from PMC8213057, “Targeting ALK2: An Open Science Approach to Developing Therapeutics for the Treatment of Diffuse Intrinsic Pontine Glioma” (Journal of Medicinal Chemistry, 2020).

One test addresses T1, Haspin (Homo sapiens, UniProt Q8TF76).
T1 sequence (Q8TF76 1-798): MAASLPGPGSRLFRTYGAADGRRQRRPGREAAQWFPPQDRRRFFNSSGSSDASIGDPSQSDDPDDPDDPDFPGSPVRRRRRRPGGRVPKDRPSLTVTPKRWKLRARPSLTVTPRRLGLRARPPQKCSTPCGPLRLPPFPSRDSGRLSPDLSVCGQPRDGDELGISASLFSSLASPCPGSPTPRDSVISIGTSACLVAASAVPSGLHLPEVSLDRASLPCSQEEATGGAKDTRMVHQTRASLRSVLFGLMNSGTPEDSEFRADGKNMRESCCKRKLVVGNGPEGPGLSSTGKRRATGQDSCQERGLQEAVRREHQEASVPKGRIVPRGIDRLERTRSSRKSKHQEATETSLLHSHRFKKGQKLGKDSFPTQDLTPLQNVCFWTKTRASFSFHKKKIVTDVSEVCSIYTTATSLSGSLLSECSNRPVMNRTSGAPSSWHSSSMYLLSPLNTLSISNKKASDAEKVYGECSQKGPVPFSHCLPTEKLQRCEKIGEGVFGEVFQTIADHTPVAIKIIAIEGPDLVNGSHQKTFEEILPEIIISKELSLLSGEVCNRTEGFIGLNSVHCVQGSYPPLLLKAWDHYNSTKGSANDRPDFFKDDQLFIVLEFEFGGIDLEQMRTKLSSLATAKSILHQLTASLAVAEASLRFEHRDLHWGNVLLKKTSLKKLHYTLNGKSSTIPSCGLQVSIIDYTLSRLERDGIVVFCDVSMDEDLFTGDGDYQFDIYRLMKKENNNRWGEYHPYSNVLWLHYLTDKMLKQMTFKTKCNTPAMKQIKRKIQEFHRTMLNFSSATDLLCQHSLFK
Put plainly: biochemical. Particulars: read-out: % enzyme activity, 1 μM; Run 1, Run 2.

For the next test, the target named is SYK (Homo sapiens, UniProt P43405). The experiment in a line: biochemical. To be noted: read-out: % enzyme activity, 1 μM; Run 1, Run 2.
The target of a further test is T2, TYRO3/SKY (Homo sapiens, UniProt Q06418).
T2 sequence (Q06418 41-890): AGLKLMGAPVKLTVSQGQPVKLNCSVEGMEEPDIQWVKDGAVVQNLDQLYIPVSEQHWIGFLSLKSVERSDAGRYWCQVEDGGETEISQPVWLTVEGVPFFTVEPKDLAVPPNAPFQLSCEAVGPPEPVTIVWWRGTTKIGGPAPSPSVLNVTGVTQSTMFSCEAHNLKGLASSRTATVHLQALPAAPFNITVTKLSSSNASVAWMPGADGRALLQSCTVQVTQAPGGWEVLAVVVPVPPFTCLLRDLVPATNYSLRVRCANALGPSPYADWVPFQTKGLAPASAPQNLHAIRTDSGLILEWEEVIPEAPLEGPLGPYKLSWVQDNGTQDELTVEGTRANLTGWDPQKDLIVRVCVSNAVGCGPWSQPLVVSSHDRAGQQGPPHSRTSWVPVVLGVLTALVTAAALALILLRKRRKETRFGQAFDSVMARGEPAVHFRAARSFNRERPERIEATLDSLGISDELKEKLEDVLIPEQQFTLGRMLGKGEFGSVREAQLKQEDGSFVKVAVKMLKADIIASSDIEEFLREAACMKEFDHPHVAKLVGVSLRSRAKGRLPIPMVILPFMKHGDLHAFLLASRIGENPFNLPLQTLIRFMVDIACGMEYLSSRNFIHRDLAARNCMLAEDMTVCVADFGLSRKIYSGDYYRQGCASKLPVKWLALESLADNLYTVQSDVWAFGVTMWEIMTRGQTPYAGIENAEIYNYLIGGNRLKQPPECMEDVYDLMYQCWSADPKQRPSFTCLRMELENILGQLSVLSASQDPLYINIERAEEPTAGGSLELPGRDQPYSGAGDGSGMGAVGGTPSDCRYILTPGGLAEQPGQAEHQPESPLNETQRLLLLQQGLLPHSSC
Put plainly: biochemical. To be noted: read-out: % enzyme activity, 1 μM; Run 1, Run 2.

The target in the next test is CDK18/cyclin Y (PCTK3) (Homo sapiens, UniProt Q07002). To be noted: 1 μM; Run 1, Run 2.
Chain of CDK18/cyclin Y (PCTK3) (Q07002 whole entry): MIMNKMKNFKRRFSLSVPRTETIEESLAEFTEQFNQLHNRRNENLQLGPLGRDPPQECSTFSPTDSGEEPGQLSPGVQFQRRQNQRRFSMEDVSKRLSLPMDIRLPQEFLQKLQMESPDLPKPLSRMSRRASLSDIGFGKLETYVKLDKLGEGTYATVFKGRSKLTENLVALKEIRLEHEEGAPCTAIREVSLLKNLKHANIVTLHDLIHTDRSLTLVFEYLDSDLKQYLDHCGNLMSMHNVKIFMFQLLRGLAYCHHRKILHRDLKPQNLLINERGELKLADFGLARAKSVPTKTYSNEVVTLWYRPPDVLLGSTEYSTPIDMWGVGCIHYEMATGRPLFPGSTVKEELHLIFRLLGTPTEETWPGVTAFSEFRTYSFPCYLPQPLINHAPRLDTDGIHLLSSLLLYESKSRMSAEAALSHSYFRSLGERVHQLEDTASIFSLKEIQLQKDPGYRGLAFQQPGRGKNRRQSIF
Chain of CDK18/cyclin Y (PCTK3) (Q8ND76 whole entry partner): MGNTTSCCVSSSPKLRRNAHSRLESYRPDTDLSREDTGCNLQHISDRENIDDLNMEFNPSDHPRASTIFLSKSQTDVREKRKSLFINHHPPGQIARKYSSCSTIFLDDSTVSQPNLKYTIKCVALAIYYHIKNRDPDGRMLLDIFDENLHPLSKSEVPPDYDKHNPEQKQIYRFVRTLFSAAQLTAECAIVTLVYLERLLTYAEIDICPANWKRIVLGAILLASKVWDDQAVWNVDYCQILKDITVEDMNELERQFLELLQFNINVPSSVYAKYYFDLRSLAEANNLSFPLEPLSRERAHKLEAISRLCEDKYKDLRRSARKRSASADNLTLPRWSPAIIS
The next test addresses CAMK4 (Homo sapiens, UniProt Q16566). Particulars: 1 μM; Run 1, Run 2.
Another test deals with T3, PKCmu/PRKD1 (Homo sapiens, UniProt Q15139).
T3 sequence (Q15139 1-912): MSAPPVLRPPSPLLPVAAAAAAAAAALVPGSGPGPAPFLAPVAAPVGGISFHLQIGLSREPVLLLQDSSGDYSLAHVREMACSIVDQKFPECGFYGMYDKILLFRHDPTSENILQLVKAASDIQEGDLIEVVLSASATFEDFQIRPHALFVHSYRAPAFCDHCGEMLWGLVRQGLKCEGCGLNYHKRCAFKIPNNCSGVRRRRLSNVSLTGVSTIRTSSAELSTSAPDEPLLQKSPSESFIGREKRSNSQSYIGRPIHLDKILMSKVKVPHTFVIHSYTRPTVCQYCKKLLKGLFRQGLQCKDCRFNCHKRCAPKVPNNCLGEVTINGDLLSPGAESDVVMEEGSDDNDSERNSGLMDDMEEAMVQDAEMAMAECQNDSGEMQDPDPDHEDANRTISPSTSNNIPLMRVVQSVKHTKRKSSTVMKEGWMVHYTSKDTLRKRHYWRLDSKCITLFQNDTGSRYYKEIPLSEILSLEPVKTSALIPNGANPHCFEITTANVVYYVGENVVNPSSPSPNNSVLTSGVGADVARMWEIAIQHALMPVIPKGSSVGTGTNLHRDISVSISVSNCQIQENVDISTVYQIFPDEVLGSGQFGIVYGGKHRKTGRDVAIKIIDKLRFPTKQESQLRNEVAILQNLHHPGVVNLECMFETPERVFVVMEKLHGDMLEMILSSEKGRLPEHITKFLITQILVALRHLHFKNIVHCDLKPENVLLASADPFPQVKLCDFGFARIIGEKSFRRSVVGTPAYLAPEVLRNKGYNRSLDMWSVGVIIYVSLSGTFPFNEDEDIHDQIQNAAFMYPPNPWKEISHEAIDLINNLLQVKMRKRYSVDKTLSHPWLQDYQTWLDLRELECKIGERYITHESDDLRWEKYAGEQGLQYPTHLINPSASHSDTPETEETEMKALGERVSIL
The experiment in a line: biochemical. Particulars: read-out: % enzyme activity, 1 μM; Run 1, Run 2.

Chain of CAMK4 (Q16566 whole entry): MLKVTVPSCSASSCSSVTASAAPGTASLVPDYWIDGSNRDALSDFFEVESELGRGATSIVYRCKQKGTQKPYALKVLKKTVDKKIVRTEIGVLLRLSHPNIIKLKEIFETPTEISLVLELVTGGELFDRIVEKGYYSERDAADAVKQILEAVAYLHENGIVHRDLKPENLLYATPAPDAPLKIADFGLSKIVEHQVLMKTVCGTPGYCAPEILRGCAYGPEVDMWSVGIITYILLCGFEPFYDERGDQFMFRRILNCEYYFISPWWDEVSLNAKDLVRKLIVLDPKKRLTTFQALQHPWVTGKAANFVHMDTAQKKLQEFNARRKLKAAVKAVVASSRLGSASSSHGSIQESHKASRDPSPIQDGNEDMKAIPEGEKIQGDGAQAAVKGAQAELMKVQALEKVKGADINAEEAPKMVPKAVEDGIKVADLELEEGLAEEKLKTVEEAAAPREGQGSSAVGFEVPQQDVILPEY

Take `COc1cc(-c2cncc(-c3ccc(N4CCN(C)CC4)cc3)c2C)cc(F)c1C(N)=O` [Compound 26a, 2-Fluoro-6-methoxy-4-(4-methyl-5-(4-(4-methylpiperazin-1-yl)phenyl)pyridin-3-yl)benzamide]: the remaining activity at 1 µM at Haspin amounted to 83.3%; at SYK, 101%; on TYRO3/SKY, 84.1%; on PKCmu/PRKD1, 90.1%. Also, the “% enzyme activity” value worked out at 100.43% on CDK18/cyclin Y (PCTK3) and 98.68% at CAMK4.

Turning to `COc1cc(-c2cncc(-c3ccc(N4C[C@@H](C)N(C)[C@@H](C)C4)cc3)c2C)cc(F)c1C(N)=O` [Compound 26c, 2-Fluoro-6-methoxy-4-(4-methyl-5-(4-((3R,5S)-3,4,5-trimethylpiperazin-1-yl)phenyl)pyridin-3-yl)benzamide], the remaining activity at 1 µM was determined as 84.8% at Haspin, 102% on SYK, 94.5% at TYRO3/SKY and 97.6% at PKCmu/PRKD1. In addition, the “% enzyme activity” value at CDK18/cyclin Y (PCTK3) is 97.60%; at CAMK4 it was 100.90%.
